Assay results from patent US6858579B2, “Anti-inflammatory compounds” (William Harvey Research Limited, priority 2001, dated 2005).
Where no end group is shown, it is not given here.

Legend:
[1] = test system: PMN migration; experiment: Mouse air-pouch model, zymosan-induced PMN migration; assay type: in vivo, mice; details: for Approximate ED50, inhibition of PMN migration: mouse air-pouch, peptide s.c. 30 min prior to 1 mg zymosan, PMN counted 4 h after zymosan, n=15, P<0.01; for activity in the in vivo animal model of inflammation: mouse air-pouch model, peptide s.c., result in words
Protocol: Male Swiss Albino mice (20-22 g body weight) were purchased from Interfauna (CFLP strain; Huntingdon, Cambridgeshire, UK) and maintained on a standard chow pellet diet with tap water ad libitum. Animals were used at least one week after arrival.
Air-pouches were formed on the back of the mice by subcutaneous (s.c.) injection of 2.5 ml or air on day […]. Three days after the last air-injection (6-day-old air-pouches) 1 mg of zymosan (in 0.5 ml of sterile saline) was injected locally (Perretti et al., 1996). Zymosan was previously boiled for 30 min in phosphate buffered solution (PBS), extensively washed in the same medium and stored at −20° C. prior to use.
Four hours after the local injection of zymosan, mice were killed by CO2 exposure and the air-pouches washed with 2 ml of PBS containing ethylenediaminetetracetic acid sodium salt (EDTA; 3 mM) and heparin (25 U/ml).
Lavage fluids (essentially the entire 2 ml were consistently recovered) were centrifuged at 200 g for 10 min at 4° C. and cell pellets were resuspended in 2 ml of PBS/EDTA+heparin. The number of PMN was determined, using a Neubauer haematocytometer, after staining (1:10 dilution) with Turk's solution (crystal violet 0.01% w/v in acetic acid 3% v/v).
The following peptides were drawn from the lipocortin 1 N-terminus region: LC12-26 (Ac-[…] (SEQ ID NO:6)), LC12-12 (Ac-AMVSEFLKQAW (SEQ ID NO:4)), LC1 13-25 (FIENEEQEYVQTV (SEQ ID NO:7)), LC12-6(Ac-AMVSE ((SEQ ID NO 3))), or scramble LC12-6 (AC-SVEMA (SEQ ID NO:5)) were administered s.c. 30 min prior to injection of 1 mg zymosan into the air-pouches. Control mice were treated with sterile PBS (100 μl s.c.).

[2] = test system: A549 cell line; details: in vitro A549 model; previous publications (Croxtall et al., 1993, 1998); result in words; cited from earlier work

| Substance | Approximate ED50, inhibition of PMN migration [1] | inhibitory effect on A549 cell function [2] | activity in the in vivo animal model of inflammation [1] |
| --- | --- | --- | --- |
| Ac-AMVSEFLKQAWFIENEEQEYVQTVK (SEQ ID NO:6) [LC12-26, reference compound] | ~45 nmol |  |  |
| EQEYVQTV (SEQ ID NO:2) [LC118-25, lipocortin 1 fragment, residues 18-25] |  | significant inhibitory activity |  |
| Ac-AMVSE ((SEQ ID NO 3)) [LC12-6, N-acetylated lipocortin 1 fragment, residues 2-6] | ~110 nmol |  | active |
| AC-SVEMA (SEQ ID NO:5) (Ac-SVEMA) [scrambled version of AMVSE, reference compound] |  |  | inactive |
| Ac-AMVSEFLKQAW (SEQ ID NO:4) [LC12-12, N-acetylated lipocortin 1 fragment, residues 2-12] | ~110 nmol |  | active |
